A value given as a limit tells only on which side of the number the result lay.

Series [1] is described as follows: Half life in rat at 10 mg/kg. Also noted: dose 10 mg/kg. The settings on record: in vivo. Type of series: ADME, organism-based.
Series [2] is described as follows: Systemic clearance in rhesus monkey at 10 mg/kg. Type of series: ADME, organism-based, Macaca mulatta. Details: dose 10 mg/kg; call rule not given here. The settings on record: in vivo.
Series [3] in a line: Inhibition of L-type calcium channel at 30 uM.
Series [4] can be described thus: Cmax in human at 20 mg, po. The settings on record: in vivo. The class given is ADME, organism-based. Details: dose 20 mg, route oral.
Series [5] is described as follows: Inhibition of Sodium channel. The settings on record: concentration not given here.
Series [6] relates to Liver microsomes. The series can be described thus: Covalent protein binding in human liver microsomes assessed per mg protein at 10 uM after 60 mins in presence of NADPH by NMR spectroscopy. To be noted: 1 h. Type of series: ADME, Microsome.
Series [7] is described as follows: Volume of distribution at steady state in rhesus monkey at 10 mg/kg. Also noted: dose 10 mg/kg. The class given is ADME, organism-based, Macaca mulatta. To be noted: in vivo, read-out: Vdss.
The nature of series [8]: Plasma protein binding in rat assessed as fraction unbound at 5 uM. Type of series: ADME, cell-free.
The target in series [9] is T1, PXR (NR1I2) (Homo sapiens, UniProt O75469).
T1 sequence (O75469 whole entry): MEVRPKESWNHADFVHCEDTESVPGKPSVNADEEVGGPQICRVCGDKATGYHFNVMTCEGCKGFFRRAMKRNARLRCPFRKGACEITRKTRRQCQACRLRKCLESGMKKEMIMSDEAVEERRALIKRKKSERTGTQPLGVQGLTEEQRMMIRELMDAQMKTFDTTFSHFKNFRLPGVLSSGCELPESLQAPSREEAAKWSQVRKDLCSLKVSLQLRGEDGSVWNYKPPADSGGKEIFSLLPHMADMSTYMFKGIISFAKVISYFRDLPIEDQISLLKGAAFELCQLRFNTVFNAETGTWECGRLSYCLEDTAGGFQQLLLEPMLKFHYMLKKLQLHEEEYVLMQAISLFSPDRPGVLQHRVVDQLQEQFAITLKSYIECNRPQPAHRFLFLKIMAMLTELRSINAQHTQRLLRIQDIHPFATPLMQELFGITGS
In words: Activity at PXR at 10 uM relative to rifampicin. To be noted: read-out: Activity.

The target in series [10] is T2, Voltage-dependent T-type calcium channel subunit alpha-1I (Homo sapiens, UniProt Q9P0X4). The series can be described thus: Antagonist activity at Cav3.3 at -100 mV holding potential by whole cell patch clamp analysis. The class given is functional.
T2 sequence (Q9P0X4 whole entry): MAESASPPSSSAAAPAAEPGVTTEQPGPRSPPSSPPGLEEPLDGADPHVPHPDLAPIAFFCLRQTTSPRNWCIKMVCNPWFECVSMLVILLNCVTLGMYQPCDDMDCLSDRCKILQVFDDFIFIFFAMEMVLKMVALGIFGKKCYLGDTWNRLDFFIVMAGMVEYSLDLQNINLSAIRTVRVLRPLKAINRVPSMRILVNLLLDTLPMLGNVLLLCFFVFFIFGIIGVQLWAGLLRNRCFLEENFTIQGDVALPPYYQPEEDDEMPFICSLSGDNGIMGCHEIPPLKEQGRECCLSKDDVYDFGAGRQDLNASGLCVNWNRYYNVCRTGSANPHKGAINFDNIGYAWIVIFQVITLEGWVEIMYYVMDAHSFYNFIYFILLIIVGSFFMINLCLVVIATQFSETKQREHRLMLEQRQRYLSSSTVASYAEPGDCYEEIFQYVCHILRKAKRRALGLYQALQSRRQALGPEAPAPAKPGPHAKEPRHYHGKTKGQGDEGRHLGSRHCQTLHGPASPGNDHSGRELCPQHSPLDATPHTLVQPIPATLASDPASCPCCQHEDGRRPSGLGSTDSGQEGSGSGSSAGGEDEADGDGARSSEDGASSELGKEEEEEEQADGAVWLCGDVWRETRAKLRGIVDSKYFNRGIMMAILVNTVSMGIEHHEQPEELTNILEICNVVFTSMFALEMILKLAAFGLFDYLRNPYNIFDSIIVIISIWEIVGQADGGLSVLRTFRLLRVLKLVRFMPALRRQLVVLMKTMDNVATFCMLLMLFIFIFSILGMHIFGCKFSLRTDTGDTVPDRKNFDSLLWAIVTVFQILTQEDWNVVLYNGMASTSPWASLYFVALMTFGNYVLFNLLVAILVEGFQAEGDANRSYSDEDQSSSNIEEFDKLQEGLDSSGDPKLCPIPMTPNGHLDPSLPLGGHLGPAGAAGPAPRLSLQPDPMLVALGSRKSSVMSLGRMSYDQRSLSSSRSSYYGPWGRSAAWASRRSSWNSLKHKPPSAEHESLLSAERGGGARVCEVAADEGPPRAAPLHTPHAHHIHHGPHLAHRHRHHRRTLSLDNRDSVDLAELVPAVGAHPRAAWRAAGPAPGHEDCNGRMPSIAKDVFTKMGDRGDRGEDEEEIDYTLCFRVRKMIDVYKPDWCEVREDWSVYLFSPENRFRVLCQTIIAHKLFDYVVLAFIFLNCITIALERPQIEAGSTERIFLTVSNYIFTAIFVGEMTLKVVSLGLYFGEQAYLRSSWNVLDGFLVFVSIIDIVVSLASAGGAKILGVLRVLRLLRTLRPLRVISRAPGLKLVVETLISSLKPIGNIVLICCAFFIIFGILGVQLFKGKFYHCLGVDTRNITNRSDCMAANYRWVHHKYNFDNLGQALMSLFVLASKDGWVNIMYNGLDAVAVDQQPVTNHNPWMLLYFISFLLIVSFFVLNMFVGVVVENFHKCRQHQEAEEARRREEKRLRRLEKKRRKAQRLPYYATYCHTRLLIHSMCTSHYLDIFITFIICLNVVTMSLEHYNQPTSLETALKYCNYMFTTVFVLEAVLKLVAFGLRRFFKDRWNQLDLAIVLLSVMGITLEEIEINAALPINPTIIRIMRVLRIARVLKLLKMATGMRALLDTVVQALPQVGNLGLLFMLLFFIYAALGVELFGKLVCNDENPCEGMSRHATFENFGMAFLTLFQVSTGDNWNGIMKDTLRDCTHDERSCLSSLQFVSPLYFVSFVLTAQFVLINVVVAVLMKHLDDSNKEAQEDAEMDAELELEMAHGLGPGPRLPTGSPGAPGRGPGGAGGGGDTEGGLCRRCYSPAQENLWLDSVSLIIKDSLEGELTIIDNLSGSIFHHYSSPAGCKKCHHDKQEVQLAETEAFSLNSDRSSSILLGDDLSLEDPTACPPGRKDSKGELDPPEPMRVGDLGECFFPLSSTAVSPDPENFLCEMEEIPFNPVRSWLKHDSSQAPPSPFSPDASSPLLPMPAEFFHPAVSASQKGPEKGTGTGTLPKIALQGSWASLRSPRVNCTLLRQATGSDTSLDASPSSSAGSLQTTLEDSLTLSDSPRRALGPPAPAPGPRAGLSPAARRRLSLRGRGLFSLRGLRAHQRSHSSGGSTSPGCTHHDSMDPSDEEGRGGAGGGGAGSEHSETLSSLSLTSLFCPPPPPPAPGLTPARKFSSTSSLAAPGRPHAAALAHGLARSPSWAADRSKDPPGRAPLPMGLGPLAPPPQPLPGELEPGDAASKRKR
Series [11] is described as follows: Bioavailability in rat at 10 mg/kg. Type of series: ADME, organism-based. The settings on record: in vivo.
In series [12] the target is hERG (KCNH2) (Homo sapiens, UniProt Q12809). In words: Inhibition of human ERG at 30 uM.
Sequence of hERG (KCNH2) (Q12809 whole entry): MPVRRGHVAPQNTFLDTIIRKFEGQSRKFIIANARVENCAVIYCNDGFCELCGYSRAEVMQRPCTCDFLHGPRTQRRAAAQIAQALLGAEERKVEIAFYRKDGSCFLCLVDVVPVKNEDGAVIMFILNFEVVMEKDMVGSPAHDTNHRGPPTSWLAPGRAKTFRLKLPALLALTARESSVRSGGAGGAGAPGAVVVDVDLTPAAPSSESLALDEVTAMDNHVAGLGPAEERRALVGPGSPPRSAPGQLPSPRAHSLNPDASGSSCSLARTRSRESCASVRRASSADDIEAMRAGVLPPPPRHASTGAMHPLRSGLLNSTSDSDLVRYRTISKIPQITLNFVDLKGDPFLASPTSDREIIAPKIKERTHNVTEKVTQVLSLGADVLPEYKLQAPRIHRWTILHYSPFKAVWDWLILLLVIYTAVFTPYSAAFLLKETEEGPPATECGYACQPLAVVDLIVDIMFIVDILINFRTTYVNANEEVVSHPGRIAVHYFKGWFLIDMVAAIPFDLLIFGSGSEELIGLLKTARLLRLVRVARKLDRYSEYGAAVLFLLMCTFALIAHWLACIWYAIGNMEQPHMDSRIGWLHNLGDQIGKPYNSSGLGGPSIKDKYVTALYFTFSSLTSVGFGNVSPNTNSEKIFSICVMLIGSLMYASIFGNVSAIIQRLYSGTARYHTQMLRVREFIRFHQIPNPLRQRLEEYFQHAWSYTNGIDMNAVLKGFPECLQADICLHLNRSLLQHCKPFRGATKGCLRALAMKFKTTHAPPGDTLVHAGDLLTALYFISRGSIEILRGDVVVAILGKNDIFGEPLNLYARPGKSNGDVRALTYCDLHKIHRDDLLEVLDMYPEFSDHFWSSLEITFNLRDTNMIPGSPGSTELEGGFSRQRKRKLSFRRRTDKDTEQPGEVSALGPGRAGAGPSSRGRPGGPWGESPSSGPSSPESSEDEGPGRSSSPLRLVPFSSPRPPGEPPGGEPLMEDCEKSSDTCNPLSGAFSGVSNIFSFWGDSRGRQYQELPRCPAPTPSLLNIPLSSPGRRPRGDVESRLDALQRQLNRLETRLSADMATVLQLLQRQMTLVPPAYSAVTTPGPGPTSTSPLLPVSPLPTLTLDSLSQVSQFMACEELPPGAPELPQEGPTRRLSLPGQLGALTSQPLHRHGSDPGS
A short description of series [13]: Plasma protein binding in human assessed as fraction unbound at 5 uM. Type of series: ADME, cell-free.
A short description of series [14]: Systemic clearance in rat at 10 mg/kg. The settings on record: in vivo. The class given is ADME, organism-based. Details: dose 10 mg/kg.
The target of series [15] is Voltage-gated potassium channel, IKs; KCNQ1(Kv7.1)/KCNE1(MinK) (Homo sapiens, UniProt P51787+P15382). In words: Inhibition of IKs. Type of series: protein-complex assay.
Series [16] concerns the target T2, Voltage-dependent T-type calcium channel subunit alpha-1I. In words: Antagonist activity at Cav3.3 at -80 mV holding potential by whole cell patch clamp analysis. Type of series: functional.
A short description of series [17]: Bioavailability in rhesus monkey at 10 mg/kg. Type of series: ADME, organism-based, Macaca mulatta. To be noted: in vivo.
Series [18] can be described thus: Bioavailability in dog at 10 mg/kg. Type of series: ADME, organism-based, Canis lupus familiaris. The settings on record: in vivo.
For series [19], the system named is Rattus norvegicus. The series can be described thus: Effect on sleep wake cycle in po dosed rat assessed as increase in delta sleep administered daily 30 mins before inactive phase measured 0.5 to 2 hrs post administration. Type of series: functional, organism-based.
Series [20] deals with P-gp. The series can be described thus: Permeability across pig LLC-PK1 cells expressing P-gp. Type of series: ADME, cell-based, Sus scrofa.
Series [21] can be described thus: Plasma protein binding in rhesus monkey assessed as fraction unbound at 5 uM. Type of series: ADME, Macaca mulatta.
Series [22] concerns the target Voltage-gated inwardly rectifying potassium channel KCNH2 (Homo sapiens, UniProt Q12809). In words: Displacement of […] from human ERG in HEK293 cells. The class given is cell-based.
The nature of series [23]: Volume of distribution at steady state in dog at 10 mg/kg. Type of series: ADME, organism-based, Canis lupus familiaris. Also noted: dose 10 mg/kg. To be noted: in vivo, read-out: Vdss.
Series [24] has as its system Rattus norvegicus. The series can be described thus: Anticonvulsant activity in WAG/Rij rat assessed as inhibition of seizure at 3 mg/kg, po measured after 4 hrs. Type of series: functional.
Series [25] in a line: Ratio of IC50 for hyperpolarized T-type calcium channel to IC50 for depolarized T-type calcium channel.
A short description of series [26]: Apparent terminal half life in human at 20 mg, po. Type of series: ADME, organism-based. The settings on record: in vivo, read-out: betat1/2(app) (converted).
Series [27] can be described thus: Half life in dog at 10 mg/kg. Details: dose 10 mg/kg. The settings on record: in vivo. Type of series: ADME, organism-based, Canis lupus familiaris.
The nature of series [28]: Antagonist activity at L-type calcium channel by FLIPR assay. Type of series: functional.
Series [29] can be described thus: Plasma protein binding in dog assessed as fraction unbound at 5 uM. Type of series: ADME, cell-free, Canis lupus familiaris.
Series [30] can be described thus: Systemic clearance in dog at 10 mg/kg. To be noted: in vivo. Type of series: ADME, organism-based, Canis lupus familiaris. Details: dose 10 mg/kg.
Series [31] relates to LLC-PK1. In words: Ratio of permeability from basolateral to apical side to apical to basolateral side of pig LLC-PK1 cells expressing P-gp. The class given is ADME, cell-based, Sus scrofa.
Series [32] is described as follows: Antagonist activity at depolarized T-type calcium channel by FLIPR assay. The class given is functional.
Series [33] in a line: Antagonist activity at hyperpolarized T-type calcium channel by FLIPR assay. Type of series: functional.
For series [34], the system named is Rattus norvegicus. In words: Effect on sleep wake cycle in rat assessed as suppression of active wake time at 5 mg/kg, po administered daily 30 mins before inactive phase. The class given is functional.
Series [35] is described as follows: Binding affinity to T-type calcium channel.
Series [36] is described as follows: Volume of distribution at steady state in rat at 10 mg/kg. The class given is ADME, organism-based. Also noted: dose 10 mg/kg. The settings on record: in vivo, read-out: Vdss.
The nature of series [37]: Half life in rhesus monkey at 10 mg/kg. Type of series: ADME, organism-based, Macaca mulatta. Details: dose 10 mg/kg. To be noted: in vivo.
Series [38] is described as follows: Half life in rat at 5 mg/kg, po. Type of series: ADME, organism-based. Also noted: dose 5 mg/kg, route oral. To be noted: in vivo.
Series [39] deals with Liver microsomes. The series can be described thus: Covalent protein binding in human liver microsomes assessed as GSH adduct formation measured per mg protein at 10 uM after 60 mins in presence of NADPH by NMR spectroscopy. Type of series: ADME, Microsome. The settings on record: 1 h.

Sequence of Voltage-gated inwardly rectifying potassium channel KCNH2 (Q12809 whole entry): as above

As for `Cc1nccnc1-c1ccc(CC(=O)N[C@H](C)c2ccc(OCC(F)(F)F)cn2)cc1`, the half-life was 14.4 min in [1]; 180 min in series [26]; 48.6 min in series [27]; 31.8 min in series [37]; 14 min in series [38]. Further, the clearance in series [2] came to 19.3 mL/min/kg; in series [14], 30.3 mL/min/kg; in series [30], 11.8 mL/min/kg. Further, the inhibition in series [3] turned out to be 12%; in series [5], 20%. For the same molecule, in series [4], the highest level (Cmax) was 1820 nM. The PB in [6] was found to be 8 pmol. Also, the Vd is 0.74 L/kg in [7], 0.36 L/kg in series [23] and 0.59 L/kg in series [36]. In addition, the fraction unbound at 5 µM was 0.123 in [8], 0.032 in series [13], 0.146 in [21] and 0.155 in series [29]. In series [9], the activity at 10 µM amounted to 8%. For the same molecule, the IC50 is 12000 nM in series [10]; 264 nM in series [16]; > 30000 nM in series [22]; > 10000 nM in [28]; 31.3 nM in [32]; 1920 nM in series [33]. The bioavailability came to 71% in series [11], 5% in series [17] and 23% in series [18]. The inhibition at 30 µM in [12] was 41%. Also, in series [15], the “inhibition (INH)” value was “Not Active”. In [19], the Activity result was “Dose-dependent effect”. In addition, in series [20], the Papp was found to be 44 ×10⁻⁶ cm/s. Moreover, in series [24], the inhibition in vivo at 3 mg/kg came out at 87%. In series [25], the Ratio IC50 was > 80. Besides, in series [31], the Ratio worked out at 1.3. Further, the Time in series [34] came to 1.5 h. Besides, the inhibition constant (Ki) in [35] was 5.5 nM.
For the molecule `C[C@@H](NC(=O)Cc1ccc(-c2cnn3ncccc23)cc1)c1ccc(OCC(F)(F)F)cn1`, in series [9], the activity at 10 µM turned out to be 0%. In series [20], the Papp amounted to 38 ×10⁻⁶ cm/s. The IC50 was > 30000 nM in series [22], > 10000 nM in series [28], 5.4 nM in series [32] and 397 nM in series [33]. Further, in series [24], the inhibition in vivo at 3 mg/kg stood at 85%. Besides, the Ratio IC50 in [25] is > 80. Besides, the Ratio in series [31] is on record as 1.3. In series [39], the PB turned out to be 244 pmol.
Consider `C[C@@H](NC(=O)Cc1ccc(N2CC[C@H](F)C2)cc1)c1ccc(OCC(F)(F)F)cn1`, for which, in [9], the activity at 10 µM stood at 31%. This molecule displayed a Papp in series [20] of 41 ×10⁻⁶ cm/s. Also, the values for the IC50 in [28], in [32] and in series [33] were > 10000 nM, 3.7 nM and 249 nM, respectively. The Ki in [35] worked out at 0.3 nM.
Regarding `C[C@@H](NC(=O)Cc1ccc(C2CC2)cc1)c1ccc(OCC(F)(F)F)cn1`, in series [9], the activity at 10 µM is 17%. For the same molecule, the Papp in series [20] stood at 45 ×10⁻⁶ cm/s. Further, the IC50 is > 10000 nM in series [22], > 10000 nM in series [28], 9.4 nM in series [32] and 384 nM in series [33]. Also, the inhibition in vivo at 3 mg/kg in series [24] was 87%. Further, the Ratio IC50 in series [25] was > 80. For the same molecule, the Ratio in series [31] turned out to be 0.7. The Ki in [35] was 1.2 nM.
As for `Cc1ncoc1-c1ccc(CC(=O)N[C@H](C)c2ccc(OCC(F)(F)F)cn2)cc1`, the half-life in series [1] is 24 min; in series [27], 66 min. For the same molecule, the fraction unbound at 5 µM was determined as 0.052 in [8] and 0.016 in series [29]. The activity at 10 µM in series [9] was 7%. Further, the bioavailability in series [11] is 100%; in series [18], 50%. The results for the clearance in [14] and in series [30] were 35 mL/min/kg and 3.6 mL/min/kg, respectively. This molecule also registered a Papp in series [20] of 35 ×10⁻⁶ cm/s. Besides, the IC50 in series [22] was > 30000 nM; in series [28], > 10000 nM; in series [32], 5.3 nM; in series [33], 206 nM. The Vd in series [23] was found to be 0.3 L/kg; in series [36], 1.1 L/kg. Moreover, the inhibition in vivo at 3 mg/kg in series [24] was 72%. In series [25], the Ratio IC50 is > 80. Further, the Ratio in [31] came to 1.1. The Ki in series [35] came out at 0.2 nM. For the same molecule, the PB in [39] is 1558 pmol.

The values are drawn from ChEMBL document CHEMBL2150960 (ACS Med Chem Lett, 2010).
